Laboratory results taken from PMC9586930, “Molecular insights into the distinct signaling duration for the peptide-induced PTH1R activation” (Nature Communications, 2022).
Numbering of substitutions follows the chain as printed.

Experiments:
Type in all cases: cell-based
Settings in all cases: for ΔpEC50±SEM: relative to WT, n = 3 in triplicate; for ΔpEC50±SEM / Span±SEM: mean ± SEM; for Span±SEM: window between maximal response (Emax) and vehicle, n = 3
PTH1R V285A mutant = target: T1, PTH1R V285A mutant (Homo sapiens, UniProt Q03431, V285A); test: cAMP accumulation assay (GloSensor), PTH1R V285A
T1 construct: a flag-tag was fused to the N terminal of full-length PTH1R (WT or mutant); expressed in transfected cells; host or cells: HEK293T
T1 sequence (Q03431 27-593 V285A): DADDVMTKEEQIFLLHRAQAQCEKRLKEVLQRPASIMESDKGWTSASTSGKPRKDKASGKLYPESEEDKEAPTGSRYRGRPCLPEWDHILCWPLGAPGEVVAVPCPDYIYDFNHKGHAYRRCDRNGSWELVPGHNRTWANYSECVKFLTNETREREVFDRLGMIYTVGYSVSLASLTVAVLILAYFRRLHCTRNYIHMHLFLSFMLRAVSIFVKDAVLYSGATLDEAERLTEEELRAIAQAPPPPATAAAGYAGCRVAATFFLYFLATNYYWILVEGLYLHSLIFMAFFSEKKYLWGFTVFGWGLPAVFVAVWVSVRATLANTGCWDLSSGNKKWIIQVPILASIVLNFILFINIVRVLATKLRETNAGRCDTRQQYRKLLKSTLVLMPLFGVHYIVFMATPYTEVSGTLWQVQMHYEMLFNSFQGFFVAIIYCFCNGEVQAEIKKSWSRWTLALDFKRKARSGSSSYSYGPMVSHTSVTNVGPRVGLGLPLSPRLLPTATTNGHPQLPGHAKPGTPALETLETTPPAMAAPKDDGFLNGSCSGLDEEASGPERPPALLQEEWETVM
Description: (§1) Human embryonic kidney 293 T (HEK293T, ATCC: CRL-1573) cells were transfected with a plasmid mixture consisting of pcDNA3.1-flag-PTH1R (WT or mutants) and the cAMP biosensor GloSensor-22F (Promega) at a ratio of 2:1 (see Supplementary Table 7 for a list of primers used in this study). After 24 h, transfected cells were plated onto a 384-well plate, which was treated with cell adherent reagent (Applygen) in advance. After another 12 h, cells were treated with Hank’s balanced salt solution for starvation and then incubated in CO2-independent media containing 4% GloSensor cAMP Reagent (Promega) at a volume of 5 μl per well and incubated for 20 min at RT before measurements for baseline luminescence (Spark Multimode microplate reader, TECAN). Next, test ligands were added at different concentrations from 10^−6 to 10^−13 M before second measurement. Finally, data were normalized to 100% of the maximal PTH (1-34) response for WT PTH1R using a sigmoidal dose-response in GraphPad Prism.
(§2) Statistical analyses were performed on at least three individual datasets and analysed using GraphPad Prism software. Bars represent differences in the calculated agonist potency (pEC50) and maximum agonist response (Emax) for each mutant relative to the WT receptor. Data are mean± s.e.m. from at least three independent experiments, performed in triplicates. ns, not significant, ^nsP > 0.01; ^*P < 0.01; ^**P < 0.001; ^***P < 0.0001 (one-way analysis of variance (ANOVA) followed by Dunnett’s test, compared with the response of the WT). For dose-response experiments, data were normalized and analyzed using nonlinear curve fitting for the log (agonist) versus response (three parameters) curves.

PTH1R L174A mutant = target: T2, PTH1R L174A mutant (Homo sapiens, UniProt Q03431, L174A); test: cAMP accumulation assay (GloSensor), PTH1R L174A
T2 construct: a flag-tag was fused to the N terminal of full-length PTH1R (WT or mutant); expressed in transfected cells; host or cells: HEK293T
T2 sequence (Q03431 27-593 L174A): T1 sequence (Q03431 27-593 V285A) with L148A, A259V
Description: as §1, §2

PTH1R L436A mutant = target: T3, PTH1R L436A mutant (Homo sapiens, UniProt Q03431, L436A); test: cAMP accumulation assay (GloSensor), PTH1R L436A
T3 construct: a flag-tag was fused to the N terminal of full-length PTH1R (WT or mutant); expressed in transfected cells; host or cells: HEK293T
T3 sequence (Q03431 27-593 L436A): T1 sequence (Q03431 27-593 V285A) with A259V, L410A
Description: as §1, §2

Row | span (from the WT) (PTH1R V285A mutant; PTH1R V2853.33A, replicate 1) | ΔpEC50 (from the WT) (PTH1R V285A mutant; PTH1R V2853.33A, replicate 1) | span (from the WT) (PTH1R V285A mutant; PTH1R V2853.33A, replicate 2) | ΔpEC50 (from the WT) (PTH1R V285A mutant; PTH1R V2853.33A, replicate 2) | span (from the WT) (PTH1R V285A mutant; PTH1R V2853.33A, replicate 3) | ΔpEC50 (from the WT) (PTH1R V285A mutant; PTH1R V2853.33A, replicate 3) | ΔpEC50±SEM (PTH1R V285A mutant) | ΔpEC50 (from the WT) (PTH1R V285A mutant; replicate 1) | ΔpEC50 (from the WT) (PTH1R V285A mutant; replicate 2) | ΔpEC50 (from the WT) (PTH1R V285A mutant; replicate 3) | Span±SEM (PTH1R V285A mutant) | span (from the WT) (PTH1R L174A mutant; PTH1R L1741.26A, replicate 1) | ΔpEC50 (from the WT) (PTH1R L174A mutant; PTH1R L1741.26A, replicate 1) | span (from the WT) (PTH1R L174A mutant; PTH1R L1741.26A, replicate 2) | ΔpEC50 (from the WT) (PTH1R L174A mutant; PTH1R L1741.26A, replicate 2) | span (from the WT) (PTH1R L174A mutant; PTH1R L1741.26A, replicate 3) | ΔpEC50 (from the WT) (PTH1R L174A mutant; PTH1R L1741.26A, replicate 3) | ΔpEC50±SEM (PTH1R L174A mutant) | ΔpEC50 (from the WT) (PTH1R L174A mutant; replicate 1) | ΔpEC50 (from the WT) (PTH1R L174A mutant; replicate 2) | Substance | also measured
1 | 160.1 | -0.326 | 211.8 | -0.5 | 140.2 | -0.433 | -0.42±0.05 | -0.326 | -0.5 | -0.433 | 170.70±21.34 | 93.64 | -0.262 | 87.77 | -0.161 | 98.4 | -0.17 | -0.20±0.03 | -0.262 | -0.161 | H-AVAEIQLMHQRAKWIQDARRRAFLHKLIAEIHTAEI-OH [LA-PTH, long-acting PTH analog, modified PTH/PTHrP hybrid] | ΔpEC50 (from the WT) (PTH1R L174A mutant; replicate 3): -0.17; Span±SEM (PTH1R L174A mutant): 93.27±3.07; span (from the WT) (PTH1R L436A mutant; PTH1R L4367.34A, replicate 1): 237.8; ΔpEC50 (from the WT) (PTH1R L436A mutant; PTH1R L4367.34A, replicate 1): 0.088; span (from the WT) (PTH1R L436A mutant; PTH1R L4367.34A, replicate 2): 171.3; ΔpEC50 (from the WT) (PTH1R L436A mutant; PTH1R L4367.34A, replicate 2): -0.137; span (from the WT) (PTH1R L436A mutant; PTH1R L4367.34A, replicate 3): 194.5; ΔpEC50 (from the WT) (PTH1R L436A mutant; PTH1R L4367.34A, replicate 3): 0.085; ΔpEC50±SEM (PTH1R L436A mutant): 0.01±0.07; ΔpEC50 (from the WT) (PTH1R L436A mutant; replicate 1): 0.088; ΔpEC50 (from the WT) (PTH1R L436A mutant; replicate 2): -0.137; ΔpEC50 (from the WT) (PTH1R L436A mutant; replicate 3): 0.085; Span±SEM (PTH1R L436A mutant): 201.20±19.49
2 | 118.6 | -0.181 | 150.8 | -0.072 | 181.1 | -0.211 | -0.15±0.04 | -0.181 | -0.072 | -0.211 | 152.43±15.43 | 90.7 | -0.41 | 103.2 | -0.706 | 154.9 | -0.481 | -0.53±0.09 | -0.41 | -0.706 | H-SVSEIQLMHNLGKHLNSMERVEWLRKKLQDVHNF-OH [PTH, Teriparatide, human PTH 1-34, long-acting peptide agonist of PTH1R] | ΔpEC50 (from the WT) (PTH1R L174A mutant; replicate 3): -0.481; Span±SEM (PTH1R L174A mutant): 116.27±19.65; span (from the WT) (PTH1R L436A mutant; PTH1R L4367.34A, replicate 1): 270.9; ΔpEC50 (from the WT) (PTH1R L436A mutant; PTH1R L4367.34A, replicate 1): 0.137; span (from the WT) (PTH1R L436A mutant; PTH1R L4367.34A, replicate 2): 204.3; ΔpEC50 (from the WT) (PTH1R L436A mutant; PTH1R L4367.34A, replicate 2): 0.015; span (from the WT) (PTH1R L436A mutant; PTH1R L4367.34A, replicate 3): 186.9; ΔpEC50 (from the WT) (PTH1R L436A mutant; PTH1R L4367.34A, replicate 3): 0.016; ΔpEC50±SEM (PTH1R L436A mutant): 0.06±0.04; ΔpEC50 (from the WT) (PTH1R L436A mutant; replicate 1): 0.137; ΔpEC50 (from the WT) (PTH1R L436A mutant; replicate 2): 0.015; ΔpEC50 (from the WT) (PTH1R L436A mutant; replicate 3): 0.016; Span±SEM (PTH1R L436A mutant): 220.70±25.60

Row | Substance | span (from the WT) (PTH1R V285A mutant; PTH1R V2853.33A, replicate 1) | ΔpEC50 (from the WT) (PTH1R V285A mutant; PTH1R V2853.33A, replicate 1) | span (from the WT) (PTH1R V285A mutant; PTH1R V2853.33A, replicate 2) | ΔpEC50 (from the WT) (PTH1R V285A mutant; PTH1R V2853.33A, replicate 2) | span (from the WT) (PTH1R V285A mutant; PTH1R V2853.33A, replicate 3) | ΔpEC50 (from the WT) (PTH1R V285A mutant; PTH1R V2853.33A, replicate 3) | ΔpEC50±SEM (PTH1R V285A mutant) | ΔpEC50 (from the WT) (PTH1R V285A mutant; replicate 1) | ΔpEC50 (from the WT) (PTH1R V285A mutant; replicate 2) | ΔpEC50 (from the WT) (PTH1R V285A mutant; replicate 3) | Span±SEM (PTH1R V285A mutant) | span (from the WT) (PTH1R L174A mutant; PTH1R L1741.26A, replicate 1) | ΔpEC50 (from the WT) (PTH1R L174A mutant; PTH1R L1741.26A, replicate 1) | span (from the WT) (PTH1R L174A mutant; PTH1R L1741.26A, replicate 2) | ΔpEC50 (from the WT) (PTH1R L174A mutant; PTH1R L1741.26A, replicate 2) | span (from the WT) (PTH1R L174A mutant; PTH1R L1741.26A, replicate 3) | ΔpEC50 (from the WT) (PTH1R L174A mutant; PTH1R L1741.26A, replicate 3) | ΔpEC50±SEM (PTH1R L174A mutant) | ΔpEC50 (from the WT) (PTH1R L174A mutant; replicate 1) | ΔpEC50 (from the WT) (PTH1R L174A mutant; replicate 2) | also measured
3 | H-AVSEHQLLHDKGKSIQDLRRRELLEKLL-{Aib}-KLHTA-NH2 [ABL, Abaloparatide, an analog of PTHrP, short-acting PTH1R agonist] | 158.8 | -1.921 | 185.5 | -2.009 | 175.8 | -2.246 | -2.06±0.1 | -1.921 | -2.009 | -2.246 | 173.37±7.80 | 94.46 | -0.37 | 117 | -0.52 | 129.9 | -0.682 | -0.52±0.09 | -0.37 | -0.52 | ΔpEC50 (from the WT) (PTH1R L174A mutant; replicate 3): -0.682; Span±SEM (PTH1R L174A mutant): 113.79±10.36; span (from the WT) (PTH1R L436A mutant; PTH1R L4367.34A, replicate 1): 166.5; ΔpEC50 (from the WT) (PTH1R L436A mutant; PTH1R L4367.34A, replicate 1): -0.45; span (from the WT) (PTH1R L436A mutant; PTH1R L4367.34A, replicate 2): 265; ΔpEC50 (from the WT) (PTH1R L436A mutant; PTH1R L4367.34A, replicate 2): -0.73; span (from the WT) (PTH1R L436A mutant; PTH1R L4367.34A, replicate 3): 245.1; ΔpEC50 (from the WT) (PTH1R L436A mutant; PTH1R L4367.34A, replicate 3): -0.7; ΔpEC50±SEM (PTH1R L436A mutant): -0.63±0.09; ΔpEC50 (from the WT) (PTH1R L436A mutant; replicate 1): -0.45; ΔpEC50 (from the WT) (PTH1R L436A mutant; replicate 2): -0.73; ΔpEC50 (from the WT) (PTH1R L436A mutant; replicate 3): -0.7; Span±SEM (PTH1R L436A mutant): 225.53±30.07
